Test results as given in patent US9850283B2, “Macrocyclic inhibitors of the PD-1/PD-L1 and CD80(B7-1)/PD-L1 protein/protein interactions” (BRISTOL-MYERS SQUIBB COMPANY, priority 2013, dated 2017).
Read-outs that look alike come from different tables or passages of the source. Positions of bridges follow the written chain, without caps; N, C: chain ends. Non-standard residues stand in square brackets, D forms with d. Residues, ends and D or L forms follow the SMILES beside them. ξ: configuration not given here. Ala(2-furyl) = N[C@@H](Cc1ccco1)C(=O)O; Phe(3-Me) = Cc1cccc(C[C@H](N)C(=O)O)c1; Hyp = O=C(O)[C@@H]1C[C@@H](O)CN1; NMeF = CN[C@@H](Cc1ccccc1)C(=O)O; NMeNle = CCCC[C@H](NC)C(=O)O; NMeA = CN[C@@H](C)C(=O)O; ξC = NC(CS)C(=O)O; Sar = CNCC(=O)O

How the values were obtained:
[1] = biological target: T1, LK35.2-hPD-L1 cells / PE-labeled PD-1-Ig (Homo sapiens, UniProt Q9NZQ7); assay: LK35.2-hPD-L1 cell binding high-content screening assay; type: cell-based; conditions: cluster symbol, read-out: CBA IC50 cluster
T1 construct: expressed in transfected cells; host or cells: LK35.2 mouse B cell line
Procedure, shortened: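 Fluorescent PD-1-Ig binding to PD-L1-expressing LK35.2 cells, imaged after washing. Conditions: 1 nM PE-PD-1-Ig, 37 °C, 1 h, RPMI with 10% fetal calf serum.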

Human PD-L1/PD-1 = biological target: T2, Human PD-L1/PD-1 (Homo sapiens, UniProt Q9NZQ7); assay: HTRF PD-1-Ig/PD-L1-His binding assay (human PD-L1); conditions: cluster symbol; read-out: HTRF IC50 cluster
T2 construct: made in house; host or cells: HEK293T
Procedure, shortened: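 Readout: time-resolved FRET between Eu cryptate-labeled anti-Ig (1 nM final) and APC-labeled anti-His (20 nM final) antibodies. These detect interaction of Fc-fused PD-1 with His-tagged human PD-L1 in dPBS containing 0.1% BSA and 0.05% Tween-20.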

[2] = cell binding assay, cell line not given
[3] = cell line of CBA not given (LK35.2-hPD-L1 or 293T-hPD-L1)

T2 sequence (Q9NZQ7 with tags, fused parts or gaps): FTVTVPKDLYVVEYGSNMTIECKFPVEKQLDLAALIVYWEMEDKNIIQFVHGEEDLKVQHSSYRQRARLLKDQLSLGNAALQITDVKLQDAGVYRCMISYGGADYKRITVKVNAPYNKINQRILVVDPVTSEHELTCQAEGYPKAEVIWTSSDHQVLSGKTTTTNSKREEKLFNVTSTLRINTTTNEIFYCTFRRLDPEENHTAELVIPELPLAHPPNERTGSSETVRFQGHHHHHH
T1 sequence (Q9NZQ7 19-290): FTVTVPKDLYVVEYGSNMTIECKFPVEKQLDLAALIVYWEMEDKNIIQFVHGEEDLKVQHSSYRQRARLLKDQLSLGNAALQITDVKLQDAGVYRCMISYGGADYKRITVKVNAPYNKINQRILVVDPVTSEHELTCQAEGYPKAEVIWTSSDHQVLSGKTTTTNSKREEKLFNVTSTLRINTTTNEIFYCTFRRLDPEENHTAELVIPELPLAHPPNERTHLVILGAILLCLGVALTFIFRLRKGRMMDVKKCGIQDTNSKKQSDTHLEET

| SMILES | IC50 [1, 2] [nM] | IC50 (Human PD-L1/PD-1) [nM] | IC50 [1, 3] [nM] |
| --- | --- | --- | --- |
| CCCC[C@H]1C(=O)N(C)[C@@H](CCCC)C(=O)N[C@@H](CCCNC(=N)N)C(=O)NC(C(=O)N[C@@H](CO)C(N)=O)CSCC(=O)N[C@@H](Cc2ccc(O)cc2)C(=O)N(C)[C@@H](C)C(=O)N[C@@H](CC(N)=O)C(=O)N2CCC[C@H]2C(=O)N[C@@H](Cc2cnc[nH]2)C(=O)N[C@@H](CC(C)C)C(=O)N2CCC[C@H]2C(=O)N[C@@H](Cc2c[nH]c3ccccc23)C(=O)N[C@@H](CO)C(=O)N[C@@H](Cc2c[nH]c3ccccc23)C(=O)N1C (stereo partly drawn) [Example 9037] ({CH2CO}-Y[NMeA]NPHLPWSW[NMeNle][NMeNle]R[ξC]S-NH2; thioether N-14) | 0.158 to 4.71 | 6.76 to 30.3 | – |
| CCCC[C@H]1C(=O)N(C)[C@@H](CCCC)C(=O)N[C@@H](CCCNC(=N)N)C(=O)N[C@H](C(=O)NCC(N)=O)CSCC(=O)N[C@@H](Cc2ccccc2)C(=O)N(C)[C@@H](C)C(=O)N[C@@H](CC(N)=O)C(=O)N2CCC[C@H]2C(=O)N[C@@H](Cc2cnc[nH]2)C(=O)N[C@@H](CC(C)C)C(=O)N(C)CC(=O)N[C@@H](Cc2cccc(C)c2)C(=O)N[C@@H](CO)C(=O)N[C@@H](Cc2c[nH]c3ccccc23)C(=O)N1C [Example 1086] ({CH2CO}-F[NMeA]NPHL[Sar][Phe(3-Me)]SW[NMeNle][NMeNle]RCG-NH2; thioether N-14) | – | > 30.5 | > 74.3 |
| CCCC[C@H]1C(=O)N(C)[C@@H](CCCC)C(=O)N[C@@H](CO)C(=O)N[C@H](C(=O)NCC(N)=O)CSCC(=O)N[C@@H](Cc2ccc(O)cc2)C(=O)N(C)[C@@H](C)C(=O)N[C@@H](CO)C(=O)N2CCC[C@H]2C(=O)N[C@@H](CO)C(=O)N[C@@H](CC(C)C)C(=O)N2C[C@H](O)C[C@H]2C(=O)N[C@@H](Cc2c[nH]c3ccccc23)C(=O)N[C@@H](CO)C(=O)N[C@@H](Cc2c[nH]c3ccccc23)C(=O)N1C [Example 5116] ({CH2CO}-Y[NMeA]SPSL[Hyp]WSW[NMeNle][NMeNle]SCG-NH2; thioether N-14) | 4.78 to 72.9 | 0.385 to 6.74 | – |
| CCCC[C@H]1C(=O)N(C)CC(=O)N[C@@H](CC(=O)O)C(=O)N[C@@H](C(C)C)C(=O)N(C)[C@@H](Cc2ccccc2)C(=O)N[C@@H](CCC(=O)O)C(=O)N(C)CC(=O)N[C@@H](Cc2c[nH]c3ccccc23)C(=O)N[C@@H](Cc2ccc(O)cc2)C(=O)N[C@@H](CC(C)C)C(=O)N[C@H](C(=O)NCC(N)=O)CSCC(=O)N[C@@H](Cc2ccccc2)C(=O)N(C)[C@@H](Cc2ccccc2)C(=O)N1C [Example 3507] (HELM PEPTIDE1{[O=C(C[*:3])[*:2]].F.[meF].[CCCC[C@@H](C(=O)[*:2])N(C)[*:1]].[Sar].D.V.[meF].E.[Sar].W.Y.L.C.G.[am]}$PEPTIDE1,PEPTIDE1,1:R3-14:R3$$$V2.0) | > 74.3 | 6.76 to 30.3 | – |
| CCCC[C@H]1C(=O)N(C)CC(=O)N[C@@H](CC(=O)O)C(=O)N[C@@H](C(C)C)C(=O)N(C)[C@@H](Cc2ccccc2)C(=O)N[C@@H](Cc2ccc(O)cc2)C(=O)N(C)CC(=O)N[C@@H](Cc2c[nH]c3ccccc23)C(=O)N[C@@H](Cc2ccc(O)cc2)C(=O)N[C@@H](CC(C)C)C(=O)N[C@H](C(=O)NCC(N)=O)CSCC(=O)N[C@@H](Cc2ccco2)C(=O)N(C)[C@@H](Cc2ccccc2)C(=O)N1C [Example 3101] ({CH2CO}-[Ala(2-furyl)][NMeF][NMeNle][Sar]DV[NMeF]Y[Sar]WYLCG-NH2; thioether N-13) | – | > 30.5 | > 74.3 |
| CCCC[C@H]1C(=O)N(C)[C@@H](CCCC)C(=O)N[C@@H](CCCNC(=N)N)C(=O)NC(C(=O)NCC(N)=O)CSCC(=O)N[C@@H](Cc2ccc(O)cc2)C(=O)N(C)[C@@H](C)C(=O)N[C@@H](CC(N)=O)C(=O)N2CCC[C@H]2C(=O)N[C@@H](Cc2c[nH]cn2)C(=O)NCC(=O)N[C@@H](CC(C)C)C(=O)N2CCC[C@H]2C(=O)N[C@@H](Cc2c[nH]c3ccccc23)C(=O)N[C@@H](CO)C(=O)N[C@@H](Cc2c[nH]c3ccccc23)C(=O)N1C (stereo partly drawn) [Example 10516] ({CH2CO}-Y[NMeA]NPHGLPWSW[NMeNle][NMeNle]R[ξC]G-NH2; thioether N-15) | > 74.3 | > 30.5 | – |
